Measurements from publication PMC10244465, “Native American ataxia medicines rescue ataxia-linked mutant potassium channel activity via binding to the voltage sensing domain” (Nature Communications, 2023).

Legend:
[1] = target: T1, Kv1.1/Kv1.1-L155P/Kv1.2 channels (Homo sapiens, UniProt Q09470, L155P); assay: TEVC of oocytes co-injected 1:1:2 Kv1.1:Kv1.1-L155P:Kv1.2 cRNA; format: cell-based; conditions: at 0.1 µM and higher
T1 construct: expressed in transfected cells; host or cells: Xenopus laevis oocytes co-injected 1:1:2 Kv1.1:Kv1.1-L155P:Kv1.2 cRNA
T1 sequence (Q09470 whole entry, stated change not applied): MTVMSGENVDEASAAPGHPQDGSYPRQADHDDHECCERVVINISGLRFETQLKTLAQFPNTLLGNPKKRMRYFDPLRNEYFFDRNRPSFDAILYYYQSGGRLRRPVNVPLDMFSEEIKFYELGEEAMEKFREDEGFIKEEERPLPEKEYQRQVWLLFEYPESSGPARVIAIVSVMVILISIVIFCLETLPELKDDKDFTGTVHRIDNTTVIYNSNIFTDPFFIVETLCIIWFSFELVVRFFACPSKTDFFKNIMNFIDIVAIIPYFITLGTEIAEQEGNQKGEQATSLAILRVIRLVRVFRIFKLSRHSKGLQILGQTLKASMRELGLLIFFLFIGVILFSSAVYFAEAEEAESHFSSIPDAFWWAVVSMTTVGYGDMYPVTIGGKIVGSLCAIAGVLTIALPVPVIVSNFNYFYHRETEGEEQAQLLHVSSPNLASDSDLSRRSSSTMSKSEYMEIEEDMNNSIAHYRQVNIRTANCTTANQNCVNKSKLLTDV
T1 sequence (Q09470 whole entry L155P): as the sequence (Q09470 whole entry, stated change not applied) above, with L155P counted along it
T1 sequence (P16389 whole entry partner): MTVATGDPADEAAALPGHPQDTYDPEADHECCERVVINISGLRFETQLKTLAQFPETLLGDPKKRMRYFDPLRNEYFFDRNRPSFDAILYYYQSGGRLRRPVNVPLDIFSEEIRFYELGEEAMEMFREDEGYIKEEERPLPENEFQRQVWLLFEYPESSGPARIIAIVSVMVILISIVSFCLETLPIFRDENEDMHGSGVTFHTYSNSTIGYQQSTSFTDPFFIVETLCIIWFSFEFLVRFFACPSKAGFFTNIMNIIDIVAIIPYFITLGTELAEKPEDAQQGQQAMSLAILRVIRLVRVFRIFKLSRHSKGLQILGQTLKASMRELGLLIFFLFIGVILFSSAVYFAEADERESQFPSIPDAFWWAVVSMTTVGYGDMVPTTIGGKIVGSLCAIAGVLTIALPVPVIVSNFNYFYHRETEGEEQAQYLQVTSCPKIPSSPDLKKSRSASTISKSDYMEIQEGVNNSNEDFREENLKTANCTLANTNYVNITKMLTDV
Text: (§1) Kv1.1 α subunits form heteromeric tetramers with other Kv1 subfamily α subunits, including Kv1.2, in the […] region of axons and some terminals, in the hippocampus (perforant input from entorhinal cortex, mossy fiber projections from granule cells to CA3, and CA3 axon collaterals)[7]–[11]. We therefore tested effects of gallic acid on Kv1.1/Kv1.2 heteromers generated in oocytes by co-injection of 1:1:2 parts Kv1.1:Kv1.1-E283K:Kv1.2 or Kv1.1:Kv1.1-L155P:Kv1.2 cRNA to approximate the Kv1.1/Kv1.2 heteromeric channel composition in EA1 patients heterozygous for either mutant KCNA1 allele. […]
(§2) We performed TEVC at room temperature using an OC-725C amplifier (Warner Instruments, Hamden, CT) and pClamp10 software (Molecular Devices, Sunnyvale, CA) 2 days after cRNA injection as described in the section above. […] We recorded currents in response to voltage pulses between −80 mV and +40 mV at 10 or 20 mV intervals from a holding potential of −80 mV, to yield current-voltage relationships and examine activation kinetics. To calculate the voltage dependence of activation (V0.5), tail currents were recorded at a voltage pulse of −50 mV immediately following prepulse voltages between −80 mV and +40 mV. We analyzed data using Clampfit (Molecular Devices) and Graphpad Prism software (GraphPad, San Diego, CA, USA), stating values as mean ± SEM. […]

[2] = target: T2, Kv1.1/Kv1.1-E283K/Kv1.2 channels (Homo sapiens, UniProt Q09470, E283K); assay: TEVC of oocytes co-injected 1:1:2 Kv1.1:Kv1.1-E283K:Kv1.2 cRNA; format: cell-based; conditions: even at 0.1 µM
T2 construct: expressed in transfected cells; host or cells: Xenopus laevis oocytes co-injected 1:1:2 Kv1.1:Kv1.1-E283K:Kv1.2 cRNA
T2 sequence (Q09470 whole entry, stated change not applied): as the sequence (Q09470 whole entry, stated change not applied) above
T2 sequence (Q09470 whole entry E283K): as the sequence (Q09470 whole entry, stated change not applied) above, with E283K counted along it
T2 sequence (P16389 whole entry partner): as the sequence (P16389 whole entry partner) above
Text: as §1, §2

O=C(O)c1cc(O)c(O)c(O)c1 [gallic acid] was tested, and the “rescue of channel activity” value [1] was “highly effective at rescuing” and the “rescue of channel activity” value [2] was “highly effective at rescuing”.
